Laboratory results reported in paper PMC6202380 (2018).
Blank lines part the entries; values can stand above or below the compound they belong to.

Assays:
[1] = test system: ds26 (DNA, duplex) CAATCGGATCGAATTCGATCCGATTG; assay: fluorimetric titration, independent-site model; settings: 100 mM K+; 10 mM LiAsO2Me2, pH 7.2 (K-100); 2 µM ligand
[2] = test system: Pu24T (DNA, G4) TGAGGGTGGTGAGGGTGGGGAAGG; assay: fluorimetric titration, independent-site model; settings: 100 mM K+; 10 mM LiAsO2Me2, pH 7.2 (K-100); 2 µM ligand
[3] = test system: CEB25^WT (DNA, G4) AAGGGTGGGTGTAAGTGTGGGTGGGT; assay: fluorimetric titration, independent-site model; settings: 100 mM K+; K-100 buffer, pH 7.2; 2 µM ligand; Table 2 prints 0.54, text gives 0.54 to CEB25^L111
[4] = test system: 22AG (DNA, G4) AGGGTTAGGGTTAGGGTTAGGG; assay: fluorimetric titration, independent-site model; settings: 2 µM ligand
[5] = test system: hras-1 (DNA, G4) TCGGGTTGCGGGCGCAGGGCACGGGCG; assay: fluorimetric titration, independent-site model; settings: 100 mM K+; 10 mM LiAsO2Me2, pH 7.2 (K-100); 2 µM ligand
[6] = test system: 22CTA (DNA, G4) AGGGCTAGGGCTAGGGCTAGGG; assay: fluorimetric titration, independent-site model; settings: 100 mM K+; 10 mM LiAsO2Me2, pH 7.2 (K-100); 2 µM ligand
[7] = test system: bcl2Mid (DNA, G4) GGGCGCGGGAGGAATTGGGCGGG; assay: fluorimetric titration, independent-site model; settings: 100 mM K+; 10 mM LiAsO2Me2, pH 7.2 (K-100); 2 µM ligand
[8] = test system: F-CEB25^L111-T (DNA, G4) AAGGGTGGGTGGGTGGGT; assay: FRET melting; settings: 1 mM K+, 99 mM Li+; 10 mM LiAsO2Me2, pH 7.2 (K-1); 0.2 µM DNA, 1 µM ligand
[9] = test system: ^BrU-22AG (DNA, G4, 5-bromouracil (replacing T) at 5, 6, 11, 12, 17, 18) AGGGTTAGGGTTAGGGTTAGGG; assay: PAGE of UVA photoadduct; settings: 100 mM K+; covalent; K-100 buffer, pH 7.2; 5 µM DNA, 25 µM ligand, 365 nm
[10] = test system: CEB25^L111 (DNA, G4) AAGGGTGGGTGGGTGGGT; assay: fluorimetric titration, independent-site model; settings: 100 mM K+; K-100 buffer, pH 7.2; 2 µM ligand; value from text, Table 2 prints 1.5 for this oligonucleotide
[11] = test system: 22AG (DNA, G4) AGGGTTAGGGTTAGGGTTAGGG; assay: fluorimetric titration; settings: 100 mM K+; K-100 buffer, pH 7.2; 2 µM ligand; binding constant could not be determined
[12] = test system: hras-1 (DNA, G4) TCGGGTTGCGGGCGCAGGGCACGGGCG; assay: CD spectroscopy; settings: 100 mM K+; K-100 buffer, pH 7.2, 20 °C; 5 µM DNA, 10 µM ligand
[13] = test system: 22AG (DNA, G4) AGGGTTAGGGTTAGGGTTAGGG; assay: CD spectroscopy; settings: 100 mM K+; K-100 buffer, pH 7.2, 20 °C; 5 µM DNA, 10 µM ligand

Ka [1]: 480000 M⁻¹
Ka [2]: 1.5e+06 M⁻¹
Ka [3]: 0.54 10^6 M^-1
Ka ([4]; 100 mM K+, 10 mM LiAsO2Me2, pH 7.2 (K-100)): 1.8e+06 M⁻¹
Ka ([4]; 100 mM Na+, 10 mM LiAsO2Me2, pH 7.2 (Na-100)): 1.4e+06 M⁻¹
Ka [5]: 1.1e+06 M⁻¹
Ka [6]: 3.9e+06 M⁻¹
Ka [7]: 1.8e+06 M⁻¹
ΔT½ [8]: 11 °C
binding [9]: yes
Ka [10]: 540000 M⁻¹
SMILES: c1cc2ccc3ccc(CCCCNCCN4CCNCc5ccc6cc(ccc6c5)CNCCN(CCNCCCCc5ccc6ccc7cccc8ccc5c6c78)CCNCc5ccc6cc(ccc6c5)CNCC4)c4ccc(c1)c2c34

binding [11]: yes
binding [9]: yes
binding [12]: yes
SMILES: c1cc2ccc3ccc(CCCCNCCN4CCNCc5ccc6cc(ccc6c5)CNCCOCCNCc5ccc6cc(ccc6c5)CNCC4)c4ccc(c1)c2c34

binding [13]: yes
binding [12]: yes
SMILES: NCCN(CCN)CCNCCCCc1ccc2ccc3cccc4ccc1c2c34

ΔT½ [8]: 13 °C
SMILES: C[n+]1cc(NC(=O)c2ccc3ccc4ccc(C(=O)Nc5cc6ccccc6[n+](C)c5)nc4c3n2)cc2ccccc21

binding [13]: yes
binding [12]: yes
SMILES: NCCCN1CCNCc2ccc3cc(ccc3c2)CNCCOCCNCc2ccc3cc(ccc3c2)CNCC1
